Assay results reported in patent publication US8871788B2, “Substituted N-alkyl and N-acyl tetrahydro-isoquinoline derivatives, preparation and therapeutic use thereof” (Sanofi, priority 2010, dated 2014).

Legend:
Rat H3 = Rat H3 (Rattus norvegicus, UniProt Q9QYN8); assay: Rat H3 radioligand binding (similar procedure); settings: rat H3, similar procedure to rhesus binding
Method: (§1) Rhesus H3 radioligand binding assay was performed using rhesus H3 receptor membranes (prepared as described above), [3H]-Methylhistamine (Perkin Elmer) and WGA SPA beads (wheat germ agglutinin scintillation proximity assay) beads (Amersham). The assay was performed in 96-well Opti-Plates (Packard). Each reaction contained 50 μl rhesus H3 membranes (20-30 μg total protein), 50 μl WGA SPA beads (0.1 μg) and 50 μl of 83Ci/mmol [^3H]-Methylhistamine (final concentration 2 nM) and 50 μl of tested compound. The compounds of this invention and/or vehicle were diluted with binding buffer from 10 mM DMSO stocks. Assay plates were sealed with TopSeal (Perkin Elmer) and mixed on shaker (25° C., 1 hour). Assay plates were read on TopCount scintillation counter (Packard). Results were analyzed by Hill transformation and Ki values were determined by Cheng-Prusoff equation. Similar procedure was employed to determine the binding data for rat.

Rats = assay: Forced-Swimming Test in Rats; assay type: in vivo, rat; settings: p.o. twice, 0.1, 1, and 10 mg/kg, 6-min test
Method: This example further illustrates the study of efficacy of the compounds of this invention as antidepressive agents in animal models.
The procedure was a modification of that described by Porsolt et al. (1977) Depression: a new animal model sensitive to antidepressant treatments. Nature 266:730-2. Rats were placed in individual glass cylinder (40 cm height, 18 cm diameter) containing water (22-25° C.) to a height of 15 cm. Two swimming sessions were conducted (a 15-min training session followed 24 h later by a 6-min test). After each swimming session, rats were placed under a heating lamp to avoid hypothermia. The duration of immobility was measured during the 6-min test. Example 1 of this invention was administered p.o. twice (15 min pre-test followed by first injection 24 h prior to […]) at three different dosages of 0.1, 1, and 10 mg/kg. The compound is active at all of these three dosage levels.

[1] = target: T1, rhesus (Macacca Mulatta) H3 receptor (Macaca mulatta, UniProt Q865E1); assay: Rhesus H3 [3H]-Methylhistamine radioligand binding assay (SPA); design: species or system rhesus monkey (Macacca Mulatta); settings: [3H]-Methylhistamine 2 nM, rhesus H3 membranes, Cheng-Prusoff
T1 construct: 445 amino acid H3 receptor; expressed in transfected cells; host or cells: Flp-In T-REx 293 Cell Line (Invitrogen), pcDNA5/FRT/TO, induced with tetracycline
T1 sequence (Q865E1 1-445): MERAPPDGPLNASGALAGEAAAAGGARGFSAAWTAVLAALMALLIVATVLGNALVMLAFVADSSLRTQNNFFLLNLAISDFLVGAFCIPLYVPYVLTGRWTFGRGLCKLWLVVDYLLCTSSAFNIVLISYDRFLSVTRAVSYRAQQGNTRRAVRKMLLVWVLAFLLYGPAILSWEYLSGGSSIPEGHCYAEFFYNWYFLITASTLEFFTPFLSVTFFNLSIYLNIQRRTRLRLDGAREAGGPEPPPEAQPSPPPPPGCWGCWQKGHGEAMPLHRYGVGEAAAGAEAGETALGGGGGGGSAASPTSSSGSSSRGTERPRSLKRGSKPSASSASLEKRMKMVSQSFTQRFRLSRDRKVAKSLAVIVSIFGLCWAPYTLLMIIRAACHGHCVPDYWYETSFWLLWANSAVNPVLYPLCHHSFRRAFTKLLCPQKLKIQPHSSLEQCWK
Method: (§2) Rhesus H3 membranes were prepared from the Flp-In T-REx 293 Cell Line (Invitrogen) stably transfected with pcDNA5/FRT/TO (Invitrogen) containing the rhesus monkey (Macacca Mulatta) 445 amino acid H3 receptor. (Genbank #AY231164). Stably transfected cultures were amplified in tissue culture flasks by standard tissue culture methods and induced to express rhesus H3 by exposure to 500 ng/ml tetracycline (Cellgro) for 24 hours. After induction, cells were dissociated from flasks utilizing Cell Stripper (Cellgro). Cells were centrifuged (1K×g, 5 min) and pellet frozen in an ethanol-dry ice bath to disrupt cell membranes. Frozen cell pellet was re-suspended in 5 mM HEPES (pH 7.4, Invitrogen) at 10 ml/1000 cm2 of harvested cells. The cell suspension was drawn through an 18 gauge needle (2-3×) followed by a 23 gauge needle (2-3×) to further disrupt cell membranes. The cell suspension was centrifuged (40K×g, 30 min). Cell membrane pellet was re-suspended in 5 mM HEPES (pH 7.4, Invitrogen) at a final protein concentration of 10 mg/ml. Rhesus H3 membranes were stored under liquid nitrogen prior to use in [3H]-Methylhistamine and GTPγS radioligand binding assays.
as §1

rhesus H3 = target: T2, rhesus H3 (Macaca mulatta, UniProt Q865E1); assay: GTPγS radioligand binding assay, rhesus H3 constitutive functional activity in cell membranes; assay type: biochemical, rhesus monkey (Macacca Mulatta); settings: relative to basal levels
T2 construct: 445 amino acid H3 receptor; expressed in transfected cells; host or cells: Flp-In T-REx 293 Cell Line (Invitrogen), pcDNA5/FRT/TO, induced with tetracycline
T2 sequence (Q865E1 1-445): as above
Method: as §2

Rat H3, sequence (Q9QYN8 whole entry): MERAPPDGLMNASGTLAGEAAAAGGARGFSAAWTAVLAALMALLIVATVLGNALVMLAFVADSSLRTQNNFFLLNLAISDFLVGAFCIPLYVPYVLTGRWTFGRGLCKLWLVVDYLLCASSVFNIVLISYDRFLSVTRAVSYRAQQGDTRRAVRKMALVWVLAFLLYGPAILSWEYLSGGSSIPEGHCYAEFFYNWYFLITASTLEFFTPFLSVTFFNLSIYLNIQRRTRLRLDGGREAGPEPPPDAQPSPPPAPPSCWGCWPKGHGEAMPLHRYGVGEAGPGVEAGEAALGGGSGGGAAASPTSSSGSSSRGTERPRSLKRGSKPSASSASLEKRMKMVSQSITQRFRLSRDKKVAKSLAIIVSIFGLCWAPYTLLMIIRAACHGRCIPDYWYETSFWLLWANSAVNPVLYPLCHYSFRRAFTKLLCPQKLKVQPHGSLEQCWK

Structure (SMILES)	Ki (Rat H3) [µM]	activity in forced-swimming test (duration of immobility) (Rats)	Ki [1] [µM]	GTPγS-35 ASSAY % Inverse Agonism (rhesus H3) [%]
C[C@H]1CCCN1[C@H]1CCN(c2ccc3c(c2)CCN(C2CCOCC2)C3=O)C1 [Example 1, 6-((2S,3′S)-2-Methyl-[1,3′]bipyrrolidinyl-1′-yl)-2-(tetrahydro-pyran-4-yl)-3,4-dihydro-2H-isoquinolin-1-one]	0.0036	active	0.0012	
Cc1ccc(S(=O)(=O)N2CCc3cc(N4CC[C@H](N5CCC[C@@H]5C)C4)ccc3C2)cc1 [Example 24, 6-((2S,3′S)-2-Methyl-[1,3′]bipyrrolidinyl-1′-yl)-2-(toluene-4-sulfonyl)-1,2,3,4-tetrahydro-isoquinoline]	0.11		0.088	−33.2
CCOC(=O)N1CCc2cc(N3CC[C@H](N4CCC[C@@H]4C)C3)ccc2C1 [Example 25, 6-((2S,3′S)-2-Methyl-[1,3′]bipyrrolidinyl-1′-yl)-3,4-dihydro-1H-isoquinoline-2-carboxylic acid ethyl ester]	0.075		0.0012	−0.5
C[C@H]1CCCN1[C@H]1CCN(c2ccc3c(c2)CCN(C(=O)Nc2ccc(-c4ccccc4)cc2)C3)C1 [Example 26, 6-((2S,3′S)-2-Methyl-[1,3′]bipyrrolidinyl-1′-yl)-3,4-dihydro-1H-isoquinoline-2-carboxylic acid biphenyl-4-ylamide]	0.33		0.074	−16.1
